Source: patent US20240270762A1, “PENICILLIN-BINDING PROTEIN INHIBITORS” (priority 2021, published 2024)
≈ marks a conversion by molar mass, not a printed value.

Columns and labels:
E. coli ATCC 25922 = experiment: microbe, parasite or virus in culture; assay type: cell-based; conditions: Escherichia coli, ATCC25922, read-out: MIC E. coli 25922
E. coli AG100 = experiment: microbe, parasite or virus in culture; assay type: cell-based; conditions: Escherichia coli, AG100, read-out: MIC E. coli AG100
E. coli 901C = experiment: microbe, parasite or virus in culture; assay type: cell-based; conditions: Escherichia coli, read-out: MIC E. coli 901C
E. coli D22 = experiment: microbe, parasite or virus in culture; assay type: cell-based; conditions: Escherichia coli, D22, read-out: MIC E. coli D22
E. coli AG100A = experiment: Broth microdilution MIC in CAMHB; assay type: cell-based; conditions: Escherichia coli, read-out: MIC E. coli AG100A
K. pneumoniae 848844 = experiment: microbe, parasite or virus in culture; assay type: cell-based; conditions: Klebsiella pneumoniae, 848844, read-out: MIC K. pneumoniae 848844
K. pneumoniae UMM = experiment: microbe, parasite or virus in culture; assay type: cell-based; conditions: Klebsiella pneumoniae, read-out: MIC K. pneumoniae UMM
K. pneumoniae SI-117 = experiment: microbe, parasite or virus in culture; assay type: cell-based; conditions: Klebsiella pneumoniae, SI117, read-out: MIC K. pneumoniae SI-117
P. aeruginosa ATCC 27853 = experiment: microbe, parasite or virus in culture; assay type: cell-based; conditions: Pseudomonas aeruginosa, ATCC27853, read-out: MIC P. aeruginosa ATCC 27853
A. baumannii ATCC 19606 = experiment: microbe, parasite or virus in culture; assay type: cell-based; conditions: Acinetobacter baumannii, ATCC19606, read-out: MIC, A. baumannii ATCC 19606
P. aeruginosa ATCC 35151 = experiment: microbe, parasite or virus in culture; assay type: cell-based; conditions: Pseudomonas aeruginosa, ATCC35151, read-out: MIC P. aeruginosa ATCC 35151
[1] = tested on: P. aeruginosa (ΔmexAB-oprM); experiment: Broth microdilution MIC in CAMHB; assay type: cell-based; conditions: Pseudomonas aeruginosa; read-out: MIC P. aeruginosa ΔmexAB-oprM
B. pseudomallei Bp82 = experiment: microbe, parasite or virus in culture; assay type: cell-based; conditions: Burkholderia pseudomallei, BP82, read-out: Minimum inhibitory concentration, B. pseudomallei Bp82
A. baumannii PBP1a = target: T1, A. baumannii PBP1a (Acinetobacter baumannii, UniProt A0ABX6CK30); experiment: Bocillin-FL competition binding via gel filtration, A. baumannii PBP1a; conditions: competition binding assay using Bocillin-FL via gel filtration; read-out: A. baumannii PBP1a Potency
T1 sequence (A0ABX6CK30 1-851): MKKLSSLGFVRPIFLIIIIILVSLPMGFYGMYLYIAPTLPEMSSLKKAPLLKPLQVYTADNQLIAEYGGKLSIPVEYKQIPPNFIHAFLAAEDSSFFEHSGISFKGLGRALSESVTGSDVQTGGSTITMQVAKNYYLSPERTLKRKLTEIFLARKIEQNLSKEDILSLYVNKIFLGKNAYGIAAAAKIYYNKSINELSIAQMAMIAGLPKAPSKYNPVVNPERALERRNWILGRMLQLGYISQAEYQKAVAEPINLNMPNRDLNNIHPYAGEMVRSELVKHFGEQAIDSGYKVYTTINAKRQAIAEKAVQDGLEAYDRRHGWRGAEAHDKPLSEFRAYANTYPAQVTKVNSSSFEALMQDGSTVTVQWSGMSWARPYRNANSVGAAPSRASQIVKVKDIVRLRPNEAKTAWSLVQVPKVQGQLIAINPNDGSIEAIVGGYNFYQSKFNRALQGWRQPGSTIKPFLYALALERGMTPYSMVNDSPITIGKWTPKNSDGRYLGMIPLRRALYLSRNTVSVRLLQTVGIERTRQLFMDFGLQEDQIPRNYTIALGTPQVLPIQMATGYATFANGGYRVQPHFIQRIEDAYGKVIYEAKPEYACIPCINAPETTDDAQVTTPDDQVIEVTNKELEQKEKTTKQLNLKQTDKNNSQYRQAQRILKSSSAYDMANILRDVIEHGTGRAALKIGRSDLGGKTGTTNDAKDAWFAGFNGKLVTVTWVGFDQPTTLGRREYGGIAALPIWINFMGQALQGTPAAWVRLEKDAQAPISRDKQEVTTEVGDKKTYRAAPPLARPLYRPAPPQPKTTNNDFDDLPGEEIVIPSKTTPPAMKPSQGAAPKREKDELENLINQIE
In short: (§1)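 Enzyme was pre-incubated with rising inhibitor concentrations, then Bocillin-FL was added and incubated 15 minutes more. Bound probe was separated by gel filtration and fluorescence read. EC50 came from fitting fraction of PBP labelled versus inhibitor concentration to a Hill equation with ymin, ymax and n.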

A. baumannii PBP2 = A. baumannii PBP2 (Acinetobacter baumannii, UniProt D0C8Z9); experiment: Bocillin-FL competition binding via gel filtration, A. baumannii PBP2
Sequence of A. baumannii PBP2 (D0C8Z9 whole entry): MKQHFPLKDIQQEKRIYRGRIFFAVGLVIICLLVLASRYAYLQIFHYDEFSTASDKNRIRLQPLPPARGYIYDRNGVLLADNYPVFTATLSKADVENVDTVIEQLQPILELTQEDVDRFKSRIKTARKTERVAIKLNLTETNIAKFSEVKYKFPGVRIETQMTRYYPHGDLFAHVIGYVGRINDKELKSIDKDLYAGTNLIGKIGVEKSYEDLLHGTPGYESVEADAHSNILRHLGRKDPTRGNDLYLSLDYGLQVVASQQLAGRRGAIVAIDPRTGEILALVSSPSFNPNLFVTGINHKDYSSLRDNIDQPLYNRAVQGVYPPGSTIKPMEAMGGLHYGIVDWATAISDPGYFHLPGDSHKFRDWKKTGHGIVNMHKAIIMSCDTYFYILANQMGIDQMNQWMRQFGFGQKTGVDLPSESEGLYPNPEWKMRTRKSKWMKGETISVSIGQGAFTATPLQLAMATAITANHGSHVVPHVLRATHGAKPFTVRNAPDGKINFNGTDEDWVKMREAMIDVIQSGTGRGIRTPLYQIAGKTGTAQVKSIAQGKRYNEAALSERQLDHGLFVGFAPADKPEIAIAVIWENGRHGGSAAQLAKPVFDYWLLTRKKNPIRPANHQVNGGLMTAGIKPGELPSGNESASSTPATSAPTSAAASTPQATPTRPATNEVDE
In short: as §1

O=C(O)c1cccc2c1OB(O)[C@@H](NC(=O)[C@@H](NC(=O)c1cnc3n(c1=O)CCS3)c1ccc(P(=O)(O)O)cc1)C2 (single isomer, unassigned) [Example 196]
MIC (E. coli ATCC 25922): > 128 µg/mL
MIC (E. coli AG100): > 128 µg/mL
MIC (E. coli 901C): 32 to 64 µg/mL (≈ 53.3 to 107 µM)
MIC (E. coli D22): > 128 µg/mL
MIC (E. coli AG100A): > 128 µg/mL
MIC (K. pneumoniae 848844): > 128 µg/mL
MIC (K. pneumoniae UMM): > 128 µg/mL
MIC (K. pneumoniae SI-117): > 128 µg/mL
MIC (P. aeruginosa ATCC 27853): > 128 µg/mL
MIC (A. baumannii ATCC 19606): > 128 µg/mL
MIC (P. aeruginosa ATCC 35151): 8 to 16 µg/mL (≈ 13.3 to 26.7 µM)
MIC [1]: > 128 µg/mL

O=C(O)c1cccc2c1OB(O)[C@@H](NC(=O)[C@H](NC(=O)c1cnc3n(c1=O)CCS3)c1ccc(P(=O)(O)O)cc1)C2 (single isomer, unassigned) [Example 197]
MIC (E. coli ATCC 25922): > 128 µg/mL
MIC (E. coli AG100): > 128 µg/mL
MIC (E. coli 901C): 2 to 4 µg/mL (≈ 3.33 to 6.66 µM)
MIC (E. coli D22): 8 to 16 µg/mL (≈ 13.3 to 26.7 µM)
MIC (E. coli AG100A): > 128 µg/mL
MIC (K. pneumoniae 848844): > 128 µg/mL
MIC (K. pneumoniae UMM): > 128 µg/mL
MIC (K. pneumoniae SI-117): > 128 µg/mL
MIC (P. aeruginosa ATCC 27853): > 128 µg/mL
MIC (A. baumannii ATCC 19606): > 128 µg/mL
MIC (P. aeruginosa ATCC 35151): < 1 µg/mL
MIC [1]: 32 to 64 µg/mL (≈ 53.3 to 107 µM)

CCN1CCN(C(=O)NC(C(=O)N[C@H]2Cc3cccc(C(=O)O)c3OB2O)c2ccc(P(=O)(O)O)c(F)c2O)C(=O)C1=O (stereo partly drawn) [Example 198, (3R)-3-(2-(4-ethyl-2,3-dioxopiperazine-1-carboxamido)-2-(3-fluoro-2-hydroxy-4-phosphonophenyl)acetamido)-2-hydroxy-3,4-dihydro-2H-benzo[e][1,2]oxaborinine-8-carboxylic acid]
MIC (E. coli ATCC 25922): > 128 µg/mL
MIC (E. coli AG100): > 128 µg/mL
MIC (E. coli 901C): < 1 µg/mL
MIC (E. coli D22): 8 to 16 µg/mL (≈ 12.9 to 25.7 µM)
MIC (E. coli AG100A): 32 to 64 µg/mL (≈ 51.4 to 103 µM)
MIC (K. pneumoniae 848844): > 128 µg/mL
MIC (K. pneumoniae UMM): 32 to 64 µg/mL (≈ 51.4 to 103 µM)
MIC (K. pneumoniae SI-117): > 128 µg/mL
MIC (P. aeruginosa ATCC 27853): > 128 µg/mL
MIC (A. baumannii ATCC 19606): 32 to 64 µg/mL (≈ 51.4 to 103 µM)
MIC (P. aeruginosa ATCC 35151): 8 to 16 µg/mL (≈ 12.9 to 25.7 µM)
MIC [1]: > 128 µg/mL

CN(CCN1CCN(C(=O)N[C@@H](C(=O)N[C@H]2Cc3ccc(F)c(C(=O)O)c3OB2O)c2cc(F)c(O)c(O)c2Cl)C(=O)C1=O)Cc1cncc(O)c1 [Example 208, (R)-3-((R)-2-(2-chloro-5-fluoro-3,4-dihydroxyphenyl)-2-(4-(2-(((5-hydroxypyridin-3-yl)methyl)(methyl)amino)ethyl)-2,3-dioxopiperazine-1-carboxamido)acetamido)-7-fluoro-2-hydroxy-3,4-dihydro-2H-benzo[e][1,2]oxaborinine-8-carboxylic acid]
MIC (B. pseudomallei Bp82): < 1 µg/mL

O=C(NCCCN1CCN(C(=O)N[C@@H](C(=O)N[C@H]2Cc3ccc(F)c(C(=O)O)c3OB2O)c2cc(F)c(O)c(O)c2Cl)C(=O)C1=O)c1cccnc1 [Example 210, (R)-3-((R)-2-(2-chloro-5-fluoro-3,4-dihydroxyphenyl)-2-(4-(3-(nicotinamido)propyl)-2,3-dioxopiperazine-1-carboxamido)acetamido)-7-fluoro-2-hydroxy-3,4-dihydro-2H-benzo[e][1,2]oxaborinine-8-carboxylic acid]
MIC (B. pseudomallei Bp82): < 1 µg/mL

O=C(NCCCN1CCN(C(=O)NC(C(=O)N[C@H]2Cc3ccc(F)c(C(=O)O)c3OB2O)c2cc(F)c(O)c(O)c2Cl)C(=O)C1=O)c1nccs1 (stereo partly drawn) [Example 211, (3R)-3-(2-(2-chloro-5-fluoro-3,4-dihydroxyphenyl)-2-(2,3-dioxo-4-(3-(thiazole-2-carboxamido)propyl)piperazine-1-carboxamido)acetamido)-7-fluoro-2-hydroxy-3,4-dihydro-2H-benzo[e][1,2]oxaborinine-8-carboxylic acid]
MIC (B. pseudomallei Bp82): < 1 µg/mL

O=C(O)c1c(F)ccc2c1OB(O)[C@@H](NC(=O)C(NC(=O)N1CCN(CCCNC(=O)[C@@H]3CCCN3)C(=O)C1=O)c1cc(F)c(O)c(O)c1Cl)C2 (stereo partly drawn) [Example 212, (3R)-3-(2-(2-chloro-5-fluoro-3,4-dihydroxyphenyl)-2-(2,3-dioxo-4-(3-((S)-pyrrolidine-2-carboxamido)propyl)piperazine-1-carboxamido)acetamido)-7-fluoro-2-hydroxy-3,4-dihydro-2H-benzo[e][1,2]oxaborinine-8-carboxylic acid]
MIC (B. pseudomallei Bp82): < 1 µg/mL

O=C(NCCCN1CCN(C(=O)NC(C(=O)N[C@H]2Cc3ccc(F)c(C(=O)O)c3OB2O)c2cc(F)c(O)c(O)c2Cl)C(=O)C1=O)Nc1cccnc1 (stereo partly drawn) [Example 213, (3R)-3-(2-(2-chloro-5-fluoro-3,4-dihydroxyphenyl)-2-(2,3-dioxo-4-(3-(3-(pyridin-3-yl)ureido)propyl)piperazine-1-carboxamido)acetamido)-7-fluoro-2-hydroxy-3,4-dihydro-2H-benzo[e][1,2]oxaborinine-8-carboxylic acid]
MIC (B. pseudomallei Bp82): < 1 µg/mL

O=C(NCCN1CCN(C(=O)NC(C(=O)N[C@H]2Cc3ccc(F)c(C(=O)O)c3OB2O)c2cc(F)c(O)c(O)c2Cl)C(=O)C1=O)c1cccnc1 (stereo partly drawn) [Example 217, (3R)-3-(2-(2-chloro-5-fluoro-3,4-dihydroxyphenyl)-2-(4-(2-(nicotinamido)ethyl)-2,3-dioxopiperazine-1-carboxamido)acetamido)-7-fluoro-2-hydroxy-3,4-dihydro-2H-benzo[e][1,2]oxaborinine-8-carboxylic acid]
MIC (B. pseudomallei Bp82): 8 to 16 µg/mL (≈ 10.9 to 21.9 µM)

O=C(NCCN1CCN(C(=O)N[C@@H](C(=O)N[C@H]2Cc3ccc(F)c(C(=O)O)c3OB2O)c2cc(F)c(O)c(O)c2Cl)C(=O)C1=O)Nc1ccncc1 [Example 221, (R)-3-((R)-2-(2-chloro-5-fluoro-3,4-dihydroxyphenyl)-2-(2,3-dioxo-4-(2-(3-(pyridin-4-yl)ureido)ethyl)piperazine-1-carboxamido)acetamido)-7-fluoro-2-hydroxy-3,4-dihydro-2H-benzo[e][1,2]oxaborinine-8-carboxylic acid]
MIC (B. pseudomallei Bp82): < 1 µg/mL

O=C(NCCCS(=O)(=O)N1CCN(C(=O)NC(C(=O)N[C@H]2Cc3ccc(F)c(C(=O)O)c3OB2O)c2cc(F)c(O)c(O)c2Cl)C1=O)c1ccccc1 (stereo partly drawn) [Example 268, (3R)-3-(2-(3-((3-benzamidopropyl)sulfonyl)-2-oxoimidazolidine-1-carboxamido)-2-(2-chloro-5-fluoro-3,4-dihydroxyphenyl)acetamido)-7-fluoro-2-hydroxy-3,4-dihydro-2H-benzo[e][1,2]oxaborinine-8-carboxylic acid]
EC50 (A. baumannii PBP1a): 10 to 50 µM
EC50 (A. baumannii PBP2): 10 to 50 µM

O=C(NCCCS(=O)(=O)N1CCN(C(=O)NC(C(=O)N[C@H]2Cc3ccc(F)c(C(=O)O)c3OB2O)c2cc(F)c(O)c(O)c2Cl)C1=O)c1ccc(O)cc1 (stereo partly drawn) [Example 269, (3R)-3-(2-(2-chloro-5-fluoro-3,4-dihydroxyphenyl)-2-(3-((3-(4-hydroxybenzamido)propyl)sulfonyl)-2-oxoimidazolidine-1-carboxamido)acetamido)-7-fluoro-2-hydroxy-3,4-dihydro-2H-benzo[e][1,2]oxaborinine-8-carboxylic acid]
EC50 (A. baumannii PBP1a): < 10 µM
EC50 (A. baumannii PBP2): 10 to 50 µM

O=C(NCCCS(=O)(=O)N1CCN(C(=O)N[C@@H](C(=O)N[C@H]2Cc3ccc(F)c(C(=O)O)c3OB2O)c2cc(F)c(O)c(O)c2Cl)C1=O)c1cccc(O)c1 [Example 271, (R)-3-((R)-2-(2-chloro-5-fluoro-3,4-dihydroxyphenyl)-2-(3-((3-(3-hydroxybenzamido)propyl)sulfonyl)-2-oxoimidazolidine-1-carboxamido)acetamido)-7-fluoro-2-hydroxy-3,4-dihydro-2H-benzo[e][1,2]oxaborinine-8-carboxylic acid]
EC50 (A. baumannii PBP1a): < 10 µM
EC50 (A. baumannii PBP2): < 10 µM
